Assay results as given in patent US12696901B2, “Pesticidally active heterocyclic derivatives with sulfur containing substituents” (SYNGENTA CROP PROTECTION AG, priority 2020, dated 2026).

What was measured:
Assay type in all cases: in vivo
[1] = system: Spodoptera littoralis (Egyptian Cotton Leaf Worm); assay: Activity against Spodoptera littoralis (Egyptian cotton leaf worm), sprayed cotton leaf discs; settings: foliar, 72 h, application rate 200 ppm, L1 larvae, 3 days after infestation
Method: Example B7: Activity Against Spodoptera littoralis (Egyptian Cotton Leaf Worm)
Cotton leaf discs were placed onto agar in 24-well microtiter plates and sprayed with aqueous test solutions prepared from 10,000 ppm DMSO stock solutions. After drying the leaf discs were infested with five L1 larvae. The samples were assessed for mortality, anti-feeding effect, and growth inhibition in comparison to untreated samples 3 days after infestation. Control of Spodoptera littoralis by a test sample is given when at least one of the categories mortality, anti-feedant effect, and growth inhibition is higher than the untreated sample.

[2] = system: Diabrotica balteata (Corn Root Worm); assay: Activity against Diabrotica balteata (corn root worm), corn seedlings on filter paper in cups; settings: 120 h, application rate 3 ppm, L2 larva, 5 days after treatment, read-out: effect in at least one of the two categories (mortality or growth inhibition)
Method: Example B12: Activity Against Diabrotica Balteata (Corn Root Worm)
Three corn seedlings were placed on wetted filter paper in plastic cups, and 3 ml of diluted test solutions were pipetted onto them. The cups were infested with 10 L2 larva and checked for mortality and growth regulation 5 days after treatment.

[3] = system: Plutella xylostella (Diamond Back Moth); assay: Activity against Plutella xylostella (diamond back moth), treated artificial diet; settings: 192 h, application rate 200 ppm, eggs, 8 days after infestation, read-out: effect in at least one of the two categories (mortality or growth inhibition)
Method: Example B5: Activity Against Plutella xylostella (Diamond Back Moth)
24-well microtiter plates with artificial diet were treated with aqueous test solutions prepared from 10,000 ppm DMSO stock solutions by pipetting. After drying, Plutella eggs were pipetted through a plastic stencil onto a gel blotting paper and the plate was closed with it. The samples were assessed for mortality and growth inhibition in comparison to untreated samples 8 days after infestation.

[4] = system: Diabrotica balteata (Corn Root Worm); assay: Activity against Diabrotica balteata (corn root worm), sprayed maize sprouts on agar; settings: 96 h, application rate 200 ppm, L2 larvae, 4 days after infestation, read-out: effect in at least one of the two categories (mortality or growth inhibition)
Method: Example B2: Activity Against Diabrotica balteata (Corn Root Worm)
Maize sprouts placed onto an agar layer in 24-well microtiter plates were treated with aqueous test solutions prepared from 10,000 ppm DMSO stock solutions by spraying. After drying, the plates were infested with L2 larvae (6 to 10 per well). The samples were assessed for mortality and growth inhibition in comparison to untreated samples 4 days after infestation.

[5] = system: Bemisia tabaci (Cotton White Fly); assay: Activity against Bemisia tabaci (cotton white fly), sprayed cotton leaf discs; settings: foliar, 144 h, application rate 200 ppm, adult white flies, 6 days after incubation
Method: Example B1: Activity Against Bemisia tabaci (Cotton White Fly)
Cotton leaf discs were placed on agar in 24-well microtiter plates and sprayed with aqueous test solutions prepared from 10,000 ppm DMSO stock solutions. After drying the leaf discs were infested with adult white flies. The samples were checked for mortality 6 days after incubation.

[6] = system: Myzus persicae (Green Peach Aphid); assay: Activity against Myzus persicae (green peach aphid), feeding/contact activity; settings: 144 h, application rate 200 ppm, mixed ages, 6 days after infestation
Method: Example B6: Activity Against Myzus persicae (Green Peach Aphid) Feeding/Contact Activity
Sunflower leaf discs were placed onto agar in a 24-well microtiter plate and sprayed with aqueous test solutions prepared from 10,000 ppm DMSO stock solutions. After drying, the leaf discs were infested with an aphid population of mixed ages. The samples were assessed for mortality 6 days after infestation.

[7] = system: Euschistus heros (Neotropical Brown Stink Bug); assay: Activity against Euschistus heros (neotropical brown stink bug), sprayed soybean leaves; settings: 120 h, application rate 200 ppm, N2 nymphs, 5 days after infestation, read-out: effect in at least one of the two categories (mortality or growth inhibition)
Method: Example B3: Activity Against Euschistus heros (Neotropical Brown Stink Bug)
Soybean leaves on agar in 24-well microtiter plates were sprayed with aqueous test solutions prepared from 10,000 ppm DMSO stock solutions. After drying the leaves were infested with N2 nymphs. The samples were assessed for mortality and growth inhibition in comparison to untreated samples 5 days after infestation.

[8] = system: Carpocapsa (Cydia) Pomonella (Codling Moth); assay: Activity against Carpocapsa (Cydia) pomonella (codling moth), sprayed diet cubes; settings: 336 h, application rate 12.5 ppm, L1 larvae, 14 days after infestation, read-out: effect in at least one of the two categories (mortality or growth inhibition)
Method: Example B11: Activity Against Carpocapsa (Cydia) Pomonella (Codling Moth)
Diet cubes coated with paraffin were sprayed with diluted test solutions in an application chamber. After drying off the treated cubes (10 replicates) were infested with 1 L1 larvae. Samples were incubated at 26-27° C. and checked 14 days after infestation for mortality and growth inhibition. The following compounds gave an effect of at least 80% in at least one of the two categories (mortality or growth inhibition) at an application rate of 12.5 ppm: P1, P2, P3, P4, P5, P6, P10, P11, P12, P14, P15, P16, P17, P19, P20, P21, P22, P24, P27, P29, P30, P33, P34, P35.

[9] = system: Chilo suppressalis (Striped Rice Stemborer); assay: Activity against Chilo suppressalis (striped rice stemborer), treated artificial diet; settings: 144 h, application rate 200 ppm, L2 larvae, 6 days after infestation
Method: Example B10: Activity Against Chilo suppressalis (Striped Rice Stemborer)
24-well microtiter plates with artificial diet were treated with aqueous test solutions prepared from 10,000 ppm DMSO stock solutions by pipetting. After drying, the plates were infested with L2 larvae (6-8 per well). The samples were assessed for mortality, anti-feeding effect, and growth inhibition in comparison to untreated samples 6 days after infestation. Control of Chilo suppressalis by a test sample is given when at least one of the categories mortality, anti-feedant effect, and growth inhibition is higher than the untreated sample.

CCS(=O)(=O)c1c(N2Cc3ccc(OC(F)(F)F)cc3C2=O)nc2cc(C(F)(F)F)ccn12 [Compound P7, 2-[3-ethylsulfonyl-7-(trifluoromethyl)imidazo[1,2-a]pyridin-2-yl]-6-(trifluoromethoxy) isoindolin-1-one]
≥ 80%: percent control (mortality, anti-feedant effect or growth inhibition) at 200 ppm [1] | percent effect (mortality or growth inhibition) at 3 ppm [2] | percent effect (mortality or growth inhibition) at 200 ppm [3] | percent effect (mortality or growth inhibition) at 200 ppm [4] | mortality at 200 ppm [5] | mortality at 200 ppm [6]

CCS(=O)(=O)c1c(N2Cc3ccc(OC(F)(F)F)cc3C2=O)nc2ccc(C(F)(F)F)cn12 [Compound P6, 2-[3-ethylsulfonyl-6-(trifluoromethyl)imidazo[1,2-a]pyridin-2-yl]-6-(trifluoromethoxy) isoindolin-1-one]
≥ 80%: percent control (mortality, anti-feedant effect or growth inhibition) at 200 ppm [1] | percent effect (mortality or growth inhibition) at 200 ppm [7] | percent effect (mortality or growth inhibition) at 3 ppm [2] | percent effect (mortality or growth inhibition) at 12.5 ppm [8] | percent effect (mortality or growth inhibition) at 200 ppm [3] | percent effect (mortality or growth inhibition) at 200 ppm [4] | mortality at 200 ppm [5] | mortality at 200 ppm [6]

CCS(=O)(=O)c1c(N2Cc3ncc(C(F)(F)F)cc3C2=O)nc2ccc(OCC(F)F)cn12 [Compound P19, 6-[6-(2,2-difluoroethoxy)-3-ethylsulfonyl-imidazo[1,2-a]pyridin-2-yl]-3-(trifluoromethyl)-7H-pyrrolo[3,4-b]pyridin-5-one]
≥ 80%: percent control (mortality, anti-feedant effect or growth inhibition) at 200 ppm [1] | percent control (mortality, anti-feedant effect or growth inhibition) at 200 ppm [9] | percent effect (mortality or growth inhibition) at 200 ppm [7] | percent effect (mortality or growth inhibition) at 3 ppm [2] | percent effect (mortality or growth inhibition) at 12.5 ppm [8] | percent effect (mortality or growth inhibition) at 200 ppm [3] | percent effect (mortality or growth inhibition) at 200 ppm [4] | mortality at 200 ppm [6]

CCS(=O)(=O)c1c(N2Cc3ccc(OC(F)(F)F)cc3C2=O)nc2ccc(OC(C)(C)C#N)cn12 [Compound P26, 2-[3-ethylsulfonyl-2-[1-oxo-6-(trifluoromethoxy)isoindolin-2-yl]imidazo[1,2-a]pyridin-6-yl]oxy-2-methyl-propanenitrile]
≥ 80%: percent control (mortality, anti-feedant effect or growth inhibition) at 200 ppm [1] | percent control (mortality, anti-feedant effect or growth inhibition) at 200 ppm [9] | percent effect (mortality or growth inhibition) at 3 ppm [2] | percent effect (mortality or growth inhibition) at 200 ppm [3] | percent effect (mortality or growth inhibition) at 200 ppm [4] | mortality at 200 ppm [5] | mortality at 200 ppm [6]

CCS(=O)(=O)c1c(N2Cc3cnc(C(F)(F)F)cc3C2=O)sc2cc(C(F)(F)F)ccc12 [Compound P1, 2-[3-ethylsulfonyl-6-(trifluoromethyl)benzothiophen-2-yl]-6-(trifluoromethyl)-3H-pyrrolo[3,4-c]pyridin-1-one]
≥ 80%: percent control (mortality, anti-feedant effect or growth inhibition) at 200 ppm [1] | percent effect (mortality or growth inhibition) at 200 ppm [7] | percent effect (mortality or growth inhibition) at 3 ppm [2] | percent effect (mortality or growth inhibition) at 12.5 ppm [8] | percent effect (mortality or growth inhibition) at 200 ppm [3] | percent effect (mortality or growth inhibition) at 200 ppm [4] | mortality at 200 ppm [5] | mortality at 200 ppm [6]

CCS(=O)(=O)c1c(N2Cc3ncc(C(F)(F)F)cc3C2=O)nc2ccc(C(F)(F)F)cn12 [Compound P4, 6-[3-ethylsulfonyl-6-(trifluoromethyl)imidazo[1,2-a]pyridin-2-yl]-3-(trifluoromethyl)-7H-pyrrolo[3,4-b] pyridin-5-one]
≥ 80%: percent control (mortality, anti-feedant effect or growth inhibition) at 200 ppm [1] | percent effect (mortality or growth inhibition) at 200 ppm [7] | percent effect (mortality or growth inhibition) at 3 ppm [2] | percent effect (mortality or growth inhibition) at 12.5 ppm [8] | percent effect (mortality or growth inhibition) at 200 ppm [3] | percent effect (mortality or growth inhibition) at 200 ppm [4] | mortality at 200 ppm [5] | mortality at 200 ppm [6]

CCS(=O)(=O)c1c(N2Cc3ncc(C(F)(F)F)cc3C2=O)nc2cc(OCC(F)(F)F)ccn12 [Compound P12, 6-[3-ethylsulfonyl-7-(2,2,2-trifluoroethoxy)imidazo[1,2-a]pyridin-2-yl]-3-(trifluoromethyl)-7H-pyrrolo[3,4-b]pyridin-5-one]
≥ 80%: percent control (mortality, anti-feedant effect or growth inhibition) at 200 ppm [1] | percent control (mortality, anti-feedant effect or growth inhibition) at 200 ppm [9] | percent effect (mortality or growth inhibition) at 200 ppm [7] | percent effect (mortality or growth inhibition) at 3 ppm [2] | percent effect (mortality or growth inhibition) at 12.5 ppm [8] | percent effect (mortality or growth inhibition) at 200 ppm [3] | percent effect (mortality or growth inhibition) at 200 ppm [4] | mortality at 200 ppm [6]

CCS(=O)(=O)c1c(N2Cc3ncc(C(F)(F)F)cc3C2=O)nc2ccc(OC(C)(C)C#N)cn12 [Compound P20, 2-[3-ethylsulfonyl-2-[5-oxo-3-(trifluoromethyl)-7H-pyrrolo[3,4-b]pyridin-6-yl]imidazo [1,2-a]pyridin-6-yl] oxy-2-methyl-propanenitrile]
≥ 80%: percent control (mortality, anti-feedant effect or growth inhibition) at 200 ppm [1] | percent control (mortality, anti-feedant effect or growth inhibition) at 200 ppm [9] | percent effect (mortality or growth inhibition) at 3 ppm [2] | percent effect (mortality or growth inhibition) at 12.5 ppm [8] | percent effect (mortality or growth inhibition) at 200 ppm [3] | percent effect (mortality or growth inhibition) at 200 ppm [4] | mortality at 200 ppm [5] | mortality at 200 ppm [6]

CCS(=O)(=O)c1c(N2Cc3ncc(C(F)(F)F)cc3C2=O)nc2ccc(Br)cn12 [Compound P21, 6-(6-bromo-3-ethylsulfonyl-imidazo[1,2-a]pyridin-2-yl)-3-(trifluoromethyl)-7H-pyrrolo[3,4-b]pyridin-5-one]
≥ 80%: percent control (mortality, anti-feedant effect or growth inhibition) at 200 ppm [1] | percent control (mortality, anti-feedant effect or growth inhibition) at 200 ppm [9] | percent effect (mortality or growth inhibition) at 200 ppm [7] | percent effect (mortality or growth inhibition) at 3 ppm [2] | percent effect (mortality or growth inhibition) at 12.5 ppm [8] | percent effect (mortality or growth inhibition) at 200 ppm [3] | percent effect (mortality or growth inhibition) at 200 ppm [4] | mortality at 200 ppm [6]
